In patent publication US4221787A, “Esteramide prodrugs of anti-inflammatory corticosteroids” (INTERx Research Corporation, priority 1979, dated 1980):

What was measured:
thymus glands = assay: Effect of selected steroid derivatives on thymus weight (systemic effect); type: in vivo, Sprague-Dawley rats; details: 48 hours after burn and application of 0.03 M steroid in isopropyl myristate; lower weight = more pronounced systemic effect; Control 233.5 ± 11.5
Protocol: A modification of the method of Tonelli et al, Endocrinology, 77, 625 (1965), was used. […] The rats were first anesthetized with phenobarbitol, then the right ear of each rat was burned on both side for 10 seconds between two vertically oriented brass cylinders heated with water at 51.7° C. from a constant temperature bath. The pressure of the cylinder on the rat ear was reproduced by using only the weight of the top brass cylinder (2.5 lbs) to apply the pressure. The burned rat ear was then immediately treated on both sides with […] of vehicle (isopropyl myristate) or 0.03 M steroid in the vehicle. After 16 hours, both ears of the rat were removed along anatomical guidelines and weighed.
Effect of Selected Steroid Derivatives on Thymus Weight
The rats used in the ear burn test described in Example 18 were revived and 48 hours after the burn and application of the steroid, they were sacrificed with carbon dioxide. Then their thymus glands were removed and weighed. The lower the weight of thymus, the more pronounced the systemic effect of the steroid.

burned rat ear = assay: Effect of selected steroid derivatives on ear burn inflammation; type: in vivo, Sprague-Dawley rats; details: 0.03 M steroid in isopropyl myristate, rat ear burned at 51.7° C. for 10 seconds, ears weighed after 16 hours, 5 rats
Protocol: The pressure of the cylinder on the rat ear was reproduced by using only the weight of the top brass cylinder (2.5 lbs) to apply the pressure. The burned rat ear was then immediately treated on both sides with […] of vehicle (isopropyl myristate) or 0.03 M steroid in the vehicle. After 16 hours, both ears of the rat were removed along anatomical guidelines and weighed.
The increase of weight caused by the burn was determined by subtracting the weight of the untreated left ear from the weight of the treated right ear.
The percent inhibition of inflammation was then determined as the weight increase of burned rat ears treated only with vehicle minus the weight increase of burned rat ears treated with vehicle containing the steroid divided by the weight increase of burned rat ears treated only with vehicle times one hundred.

mouse skin = details: in vivo
Protocol: Effect of Selected Steroid Derivatives on Skin Thickness A modification of the method of Smith et al, Arch Derrmatol, 112, 1115 (1976), was used. Hairless mice were used instead of rats. The steroids were tested at 0.03 M in propyleneglycol suspension except for hydrocortisone 17-butyrate which was soluble. Each suspension (50 μl) was applied to the backs of 9 mice daily. On the twenty-ninth day of the experiment, the mice were sacrificed with carbon dioxide and the double fold skin thickness was immediately measured using an Ames micrometer accurate to 0.0001 inch at a pressure of 28 lb/cm^2. The measurement was taken after three minutes had elapsed from the time the mouse skin was placed in the micrometer.

Row | Thymus Weight (thymus glands) | % Decrease from Control (double fold skin thickness) (mouse skin) | SMILES | % Inhibition (of ear burn inflammation) (burned rat ear)
1 | 149.6 ± 11.7 mg | 39.2% | CCCC(=O)O[C@]1(C(=O)CO)CC[C@H]2[C@@H]3CCC4=CC(=O)CC[C@]4(C)[C@H]3[C@@H](O)C[C@@]21C [Hydrocortisone 17-butyrate] | 28.9%
2 |  |  | CCCC(=O)O[C@]1(C(=O)COC(=O)CCC(=O)N(CC)CC)CC[C@H]2[C@@H]3CCC4=CC(=O)CC[C@]4(C)[C@H]3[C@@H](O)C[C@@]21C [4-Pregnene-11β-Hydroxy-17α-butyryloxy-21-(N,N-diethylsuccinamyloxy)-3,20-dione] | 20.4%
3 |  |  | C[C@]12CCC(=O)C=C1CC[C@@H]1[C@@H]2[C@@H](O)C[C@@]2(C)[C@H]1CC[C@]2(O)C(=O)COC(=O)[C@@H]1CCC(=O)N1 [4-Pregnene-11β,17α-dihydroxy-21-(2'-oxopyrrolidin-5'-yl)carbonyloxy-3,20-dione] | 50.5%
4 | 65.3 ± 8.1 mg | 45.8% | CC1(C)O[C@@H]2C[C@H]3[C@@H]4CCC5=CC(=O)C=C[C@]5(C)[C@@]4(F)[C@@H](O)C[C@]3(C)[C@]2(C(=O)CO)O1 [Triamcinolone acetonide] | 53.8%
5 | 177.2 ± 11.0 mg | 37.5% | CC(=O)OCC(=O)[C@@]1(O)CC[C@H]2[C@@H]3CCC4=CC(=O)CC[C@]4(C)[C@H]3[C@@H](O)C[C@@]21C [Hydrocortisone 21-acetate] | 31.0%

Row | SMILES | Thymus Weight (thymus glands) | % Decrease from Control (double fold skin thickness) (mouse skin) | % Inhibition (of ear burn inflammation) (burned rat ear)
6 | C[C@]12CCC(=O)C=C1CC[C@@H]1[C@@H]2[C@@H](O)C[C@@]2(C)[C@H]1CC[C@]2(O)C(=O)CO [Hydrocortisone] | 190.3 ± 29.7 mg |  | 3.3%
7 | CCN(CC)C(=O)CCC(=O)OCC(=O)[C@@]1(O)CC[C@H]2[C@@H]3CCC4=CC(=O)CC[C@]4(C)[C@H]3[C@@H](O)C[C@@]21C [4-Pregnene-11β,17α-dihydroxy-21-(N,N-diethylsuccinamyloxy)-3,20-dione] |  | 26.7% | 49.2%
